Measured values taken from US20260034119A1, “5-METHOXY-N,N-[…][…], THEIR […], AND METHODS FOR TREATMENT OF NEUROLOGICAL, […], AND SUBSTANCE USE DISORDERS” (priority 2023, published 2026).
Read-outs that look alike come from different tables or passages of the source.

What was measured:
5-HT1A A365N = target: T1, 5-HT1A A365N (Homo sapiens, UniProt P08908, A365N); assay: Gi1 BRET at mutant 5-HT1A A365N; assay type: cell-based; conditions: Gi1 BRET, 5-HT1A A365N^6.55
T1 construct: expressed in transfected cells; host or cells: HEK293-T
T1 sequence (P08908 1-422 A365N): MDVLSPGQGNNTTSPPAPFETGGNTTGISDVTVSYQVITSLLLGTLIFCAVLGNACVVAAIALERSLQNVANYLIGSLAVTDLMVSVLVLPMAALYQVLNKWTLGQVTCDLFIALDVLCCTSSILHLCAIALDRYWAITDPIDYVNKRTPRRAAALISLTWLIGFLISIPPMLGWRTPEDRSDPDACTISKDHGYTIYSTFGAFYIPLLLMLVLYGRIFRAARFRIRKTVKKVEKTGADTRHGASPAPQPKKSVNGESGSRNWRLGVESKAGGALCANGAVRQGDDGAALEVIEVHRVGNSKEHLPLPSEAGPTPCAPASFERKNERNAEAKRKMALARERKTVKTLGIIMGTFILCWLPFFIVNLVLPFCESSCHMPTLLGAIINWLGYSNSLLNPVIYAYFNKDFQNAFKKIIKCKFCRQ

5-HT2A = 5-HT2A (Homo sapiens, UniProt P28223)
OCT1 = target: T2, OCT1 (Homo sapiens, UniProt O15245); assay: OCT1 uptake inhibition; assay type: cell-based; conditions: compared with 5-HT1A
T2 construct: expressed in transfected cells; host or cells: Flp-In T-Rex cell line (ThermoFisher), tetracycline-induced
T2 sequence (O15245 1-554): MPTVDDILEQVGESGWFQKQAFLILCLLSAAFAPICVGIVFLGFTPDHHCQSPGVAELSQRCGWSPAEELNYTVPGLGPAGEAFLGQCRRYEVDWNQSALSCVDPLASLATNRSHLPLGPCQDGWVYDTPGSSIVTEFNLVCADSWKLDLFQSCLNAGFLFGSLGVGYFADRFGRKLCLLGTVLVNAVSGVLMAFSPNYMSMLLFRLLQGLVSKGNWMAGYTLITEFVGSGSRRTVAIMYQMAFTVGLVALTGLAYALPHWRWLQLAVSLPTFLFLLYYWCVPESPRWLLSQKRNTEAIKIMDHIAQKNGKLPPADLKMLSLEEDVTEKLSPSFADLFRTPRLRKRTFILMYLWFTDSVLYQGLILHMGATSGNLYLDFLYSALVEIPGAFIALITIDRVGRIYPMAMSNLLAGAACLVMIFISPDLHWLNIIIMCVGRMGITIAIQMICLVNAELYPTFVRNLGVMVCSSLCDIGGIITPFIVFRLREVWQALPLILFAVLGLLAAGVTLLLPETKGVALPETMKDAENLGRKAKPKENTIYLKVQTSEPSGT
Procedure: Inducible cell lines stably expressing OCT1, OCT2, or PMAT were generated using the Flp-In T-Rex cell line (ThermoFisher) according to manufacturer recommendations. Cells were maintained in DMEM supplemented with 10% FBS, 100 μg/ml hygromycin B (GoldBio), and 10 μg/ml blasticidin (GoldBio). To measure uptake inhibition, cells were seeded into poly-L-lysine coated clear-bottom 384-well plates at a density of 25,000 cells per well in DMEM containing 10% FBS and 2 μg/ml of tetracycline (Sigma) to induce transporter expression. […] Cells were incubated with drug for 30 min at 37° C. Fluorescent substrate was then added to the cells. […] Cells were incubated with respective substrates for an hour at 37° C. OCT2 cells were read directly in a Victor NIVO plate reader using 495 nm excitation and 580 emission filter for 0.1 s. OCT1 and PMAT cells were washed in HBSS supplemented with 20 mM HEPES pH 7.4 before reading in a Victor NIVO plate reader using 435 nm excitation and 480 nm emission filter for 0.1 s.

[1] = Human plasma protein binding; assay type: in vitro ADME; conditions: for fraction unbound: human, plasma
5-HT1A = 5-HT1A (Homo sapiens, UniProt P08908); assay: BRET signaling assay: 5-HT1A-mediated activation of heterotrimeric Gi1 (TRUPATH, HEK293-T)
5-HT1A, sequence (P08908 whole entry): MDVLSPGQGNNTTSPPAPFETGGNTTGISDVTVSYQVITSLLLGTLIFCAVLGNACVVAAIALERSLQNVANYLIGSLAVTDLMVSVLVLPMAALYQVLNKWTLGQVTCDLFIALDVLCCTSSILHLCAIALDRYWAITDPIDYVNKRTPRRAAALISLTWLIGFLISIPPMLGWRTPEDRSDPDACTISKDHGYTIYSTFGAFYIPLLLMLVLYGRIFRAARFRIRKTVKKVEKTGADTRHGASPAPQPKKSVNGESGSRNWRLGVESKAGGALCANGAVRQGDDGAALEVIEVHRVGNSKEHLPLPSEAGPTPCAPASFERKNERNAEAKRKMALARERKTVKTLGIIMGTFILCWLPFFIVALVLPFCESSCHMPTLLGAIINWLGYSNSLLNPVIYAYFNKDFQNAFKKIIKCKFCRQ

5-HT2A, sequence (P28223 whole entry): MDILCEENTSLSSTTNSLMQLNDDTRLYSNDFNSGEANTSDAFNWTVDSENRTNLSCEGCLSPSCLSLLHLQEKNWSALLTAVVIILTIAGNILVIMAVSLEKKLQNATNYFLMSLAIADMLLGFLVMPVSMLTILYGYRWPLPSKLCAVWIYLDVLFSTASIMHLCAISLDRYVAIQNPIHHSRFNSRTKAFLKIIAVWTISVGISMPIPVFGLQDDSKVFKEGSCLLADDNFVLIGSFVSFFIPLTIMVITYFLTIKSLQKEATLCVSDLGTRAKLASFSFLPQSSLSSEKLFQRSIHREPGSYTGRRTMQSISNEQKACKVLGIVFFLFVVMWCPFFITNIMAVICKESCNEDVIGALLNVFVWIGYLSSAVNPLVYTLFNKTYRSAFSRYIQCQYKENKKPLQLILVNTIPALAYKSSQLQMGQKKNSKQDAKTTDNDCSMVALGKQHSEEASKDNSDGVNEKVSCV

COc1ccc2[nH]cc(CCN3CCCC3)c2c1F [4-F, 5-MeO-PyrT, 4-Fluoro, 5-methoxypyrrolidinyl-tryptamine]
pEC50 (5-HT1A A365N): (8.29,
EC50 (5-HT1A A365N; read-out: EC50): 5.08 nM
EC50 (5-HT2A; Gq BRET, 5-HT2A WT): 300 nM
pEC50 (5-HT2A; Gq BRET, 5-HT2A WT): (6.52,
EC50 (5-HT2A; read-out: Gq BRET EC50): 300 nM
activity at other neurotransmitter transporters (OCT1) (OCT1): substantially lower activity
recovery [1]: 81.8%
% Compound remaining at 4 h ([1]; 4 h): 97.9%
fraction unbound ([1]; read-out: % Bound Mean (converted)): 0.74
fraction unbound ([1]; read-out: % Unbound): 0.74
fraction unbound ([1]; read-out: fu): 0.74
fraction unbound ([1]; replicate R1, read-out: % Bound R1 (converted)): 0.778
fraction unbound ([1]; replicate R2, read-out: % Bound R2 (converted)): 0.702
Emax, 5-HT1A-mediated activation of Gi1 (BRET) (5-HT1A): 102.8 % of 5-HT
pEC50 (5-HT1A; Gi1 BRET, 5-HT1A WT): (9.43,
EC50 (5-HT1A; read-out: Gi BRET EC50): 0.37 nM
